Source: publication PMC7398468 (Gut, 2020)

Target: SUMO-activating enzyme (SAE), subunit 2 (UBA2/SAE2) (Homo sapiens, UniProt Q9UBT2)
Test: ATP-inorganic pyrophosphate exchange assay with SUMO2
Type: biochemical

Chain of SUMO-activating enzyme (SAE), subunit 2 (UBA2/SAE2) (Q9UBT2 whole entry): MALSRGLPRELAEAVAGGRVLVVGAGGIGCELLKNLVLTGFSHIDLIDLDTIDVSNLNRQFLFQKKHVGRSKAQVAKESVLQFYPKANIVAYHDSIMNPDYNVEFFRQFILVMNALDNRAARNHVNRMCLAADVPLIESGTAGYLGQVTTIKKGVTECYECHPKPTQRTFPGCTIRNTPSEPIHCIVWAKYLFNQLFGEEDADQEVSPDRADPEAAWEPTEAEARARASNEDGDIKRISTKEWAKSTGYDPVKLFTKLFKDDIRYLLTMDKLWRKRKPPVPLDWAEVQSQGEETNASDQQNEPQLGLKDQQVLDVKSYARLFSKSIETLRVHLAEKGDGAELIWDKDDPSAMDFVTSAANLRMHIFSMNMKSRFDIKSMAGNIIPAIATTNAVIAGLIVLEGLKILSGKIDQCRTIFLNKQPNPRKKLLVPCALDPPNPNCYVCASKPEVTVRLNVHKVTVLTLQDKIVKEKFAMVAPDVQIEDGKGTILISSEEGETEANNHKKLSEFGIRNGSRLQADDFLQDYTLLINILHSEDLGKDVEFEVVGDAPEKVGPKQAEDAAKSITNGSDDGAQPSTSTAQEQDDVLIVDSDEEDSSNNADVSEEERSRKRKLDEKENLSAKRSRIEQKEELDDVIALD
Chain of SUMO-activating enzyme (SAE), subunit 2 (UBA2/SAE2) (Q9UBE0 whole entry, further chain): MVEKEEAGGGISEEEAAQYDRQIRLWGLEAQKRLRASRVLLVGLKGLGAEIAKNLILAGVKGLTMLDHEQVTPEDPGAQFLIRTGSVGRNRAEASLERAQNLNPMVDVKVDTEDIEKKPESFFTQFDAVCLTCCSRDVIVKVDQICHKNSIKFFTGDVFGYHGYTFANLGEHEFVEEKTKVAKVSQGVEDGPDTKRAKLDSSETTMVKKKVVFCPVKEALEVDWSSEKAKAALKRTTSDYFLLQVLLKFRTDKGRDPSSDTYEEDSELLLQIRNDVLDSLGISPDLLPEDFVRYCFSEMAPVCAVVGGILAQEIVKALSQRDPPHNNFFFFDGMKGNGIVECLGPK

## ML-93
  IC50: 37 nM
